Measured values reported in ChEMBL document CHEMBL2311464, “Potent inhibitors of CDK5 derived from roscovitine: synthesis, biological evaluation and molecular modelling” (Bioorg Med Chem Lett, 2013).

Key:
[1] = target: Cyclin-dependent kinase 5/CDK5 activator 1 (Homo sapiens, UniProt Q00535); assay: Inhibition of recombinant human CDK5/p25 after 30 mins by scintillation counting; format: protein-complex assay
[2] = target: Cyclin-dependent kinase 1/cyclin B1 (Homo sapiens, UniProt P06493); assay: Inhibition of CDK2/cyclin B (unknown origin) after 30 mins by scintillation counting
[3] = Inhibition of porcine brain CK1 delta/epsilon using RRKHAAIGpSAYSITA as substrate measured after 30 mins by scintillation counting; set-up: species or system Sus scrofa
[4] = target: Glycogen synthase kinase-3 (Sus scrofa, UniProt B2LUN4+I6LNT8); assay: Inhibition of porcine GSK-3alpha/beta using YRRAAVPPSPSLSRHSSPHQSpEDEEE as substrate measured after 30 mins by scintillation counting
[5] = target: Cyclin-dependent kinase 2/cyclin A (Homo sapiens, UniProt P24941); assay: Inhibition of recombinant human CDK2/cyclin A after 30 mins by scintillation counting; format: protein-complex assay
cells = settings: Homo sapiens, SH-SY5Y, 48 h
Description: Cytotoxicity against human SH-SY5Y cells after 48 hrs by MTS assay

SH-SY5Y [6] = assay: Ratio of roscovitine IC50 to compound IC50 for human SH-SY5Y cells after 48 hrs by MTS assay; format: functional
SH-SY5Y [7] = assay: Ratio of DRF53 IC50 to compound IC50 for human SH-SY5Y cells after 48 hrs by MTS assay; format: functional
[8] = target: Dual specificity tyrosine-phosphorylation-regulated kinase 1A (Homo sapiens, UniProt Q13627); assay: Inhibition of recombinant GST-fused human DYRK1A expressed in Escherichia coli using KKISGRLSPIMTEQ as substrate
Sus scrofa = organism: Sus scrofa; assay: Inhibition of porcine brain CK1 delta/epsilon using RRKHAAIGpSAYSITA as substrate at 0.1 uM measured after 30 mins by scintillation counting

Cyclin-dependent kinase 5/CDK5 activator 1, sequence (Q00535 whole entry): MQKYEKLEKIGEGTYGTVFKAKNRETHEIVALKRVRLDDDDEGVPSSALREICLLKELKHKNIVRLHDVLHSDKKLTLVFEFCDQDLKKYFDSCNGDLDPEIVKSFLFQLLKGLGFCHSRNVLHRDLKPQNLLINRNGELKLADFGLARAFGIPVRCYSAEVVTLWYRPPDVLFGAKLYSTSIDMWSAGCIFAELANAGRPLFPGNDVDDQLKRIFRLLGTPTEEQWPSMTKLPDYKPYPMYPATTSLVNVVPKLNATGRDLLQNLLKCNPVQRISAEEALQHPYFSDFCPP
Cyclin-dependent kinase 5/CDK5 activator 1, sequence (Q15078 whole entry, further chain): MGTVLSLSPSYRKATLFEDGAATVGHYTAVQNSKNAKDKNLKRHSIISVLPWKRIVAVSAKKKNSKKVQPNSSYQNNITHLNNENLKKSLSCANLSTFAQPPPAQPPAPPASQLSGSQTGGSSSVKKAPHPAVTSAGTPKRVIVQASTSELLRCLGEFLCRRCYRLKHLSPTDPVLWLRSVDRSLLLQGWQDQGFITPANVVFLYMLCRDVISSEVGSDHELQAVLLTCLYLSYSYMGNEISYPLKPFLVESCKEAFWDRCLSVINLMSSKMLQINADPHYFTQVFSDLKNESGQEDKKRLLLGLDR
Cyclin-dependent kinase 1/cyclin B1, sequence (P06493 whole entry): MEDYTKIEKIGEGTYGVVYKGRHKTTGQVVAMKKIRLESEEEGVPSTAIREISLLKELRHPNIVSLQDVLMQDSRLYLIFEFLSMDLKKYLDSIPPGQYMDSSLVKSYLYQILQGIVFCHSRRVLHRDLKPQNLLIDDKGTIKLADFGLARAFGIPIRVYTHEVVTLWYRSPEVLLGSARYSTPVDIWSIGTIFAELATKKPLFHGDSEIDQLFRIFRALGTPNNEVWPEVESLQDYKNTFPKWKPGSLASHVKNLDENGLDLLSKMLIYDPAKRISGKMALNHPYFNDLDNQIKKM
Cyclin-dependent kinase 1/cyclin B1, sequence (P14635 whole entry, further chain): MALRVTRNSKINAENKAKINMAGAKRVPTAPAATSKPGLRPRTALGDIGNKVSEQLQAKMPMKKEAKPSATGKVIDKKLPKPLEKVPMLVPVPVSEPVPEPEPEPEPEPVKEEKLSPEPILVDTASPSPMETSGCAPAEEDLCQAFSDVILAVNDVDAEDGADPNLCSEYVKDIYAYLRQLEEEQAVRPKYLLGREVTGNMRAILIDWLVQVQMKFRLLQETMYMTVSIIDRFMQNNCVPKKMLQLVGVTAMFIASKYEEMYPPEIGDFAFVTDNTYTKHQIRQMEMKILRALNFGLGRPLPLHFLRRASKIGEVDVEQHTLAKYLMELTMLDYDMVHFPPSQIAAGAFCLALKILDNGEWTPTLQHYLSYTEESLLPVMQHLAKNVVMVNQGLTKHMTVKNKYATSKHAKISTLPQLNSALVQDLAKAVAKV

| Compound | IC50 [1] [nM] | IC50 [2] [nM] | IC50 [3] [nM] | IC50 [4] [nM] | IC50 [5] [nM] | IC50 (cells) [nM] | Ratio IC50 (SH-SY5Y [6]) | Ratio IC50 (SH-SY5Y [7]) | IC50 [8] [nM] | inhibition (Sus scrofa) [%] |
| --- | --- | --- | --- | --- | --- | --- | --- | --- | --- | --- |
| CC[C@H](CO)Nc1nc(Nc2cccc(-c3ccccn3)c2)c2ncn(C(C)C)c2n1 | 80 | 220 | 14 | – | – | – | – | – | – | – |
| CC(C)[C@H](CO)Nc1nc(Nc2ccccn2)c2ncn(C(C)C)c2n1 | 1100 | – | 6200 | > 10000 | 800 | 1800 | – | – | – | – |
| CC[C@H](CO)Nc1nc(Nc2ccnnc2)c2ncn(C(C)C)c2n1 | 60 | – | 500 | 13000 | 72 | 1800 | – | – | – | – |
| CC[C@@H](CO)Nc1nc(Nc2ccncc2)c2ncn(C(C)C)c2n1 | 50 | – | > 1000 | 6000 | 50 | 1800 | – | – | – | – |
| CC[C@H](CO)Nc1nc(Nc2cccnc2)c2ncn(C(C)C)c2n1 | 25 | – | 1000 | 10000 | 50 | 1800 | – | – | – | – |
| CC(C)[C@@H](CO)Nc1nc(Nc2ncccn2)c2ncn(C(C)C)c2n1 | 10000 | – | > 10000 | > 10000 | 9000 | 1800 | – | – | – | – |
| CC(C)n1cnc2c(Nc3ncccn3)nc(Cl)nc21 | > 10000 | – | 8000 | > 10000 | > 10000 | 1800 | 5 | 5 | > 10000 | – |
| CC(C)n1cnc2c(Nc3cncnc3)nc(Cl)nc21 | 2800 | – | 2300 | > 10000 | 180 | 1800 | – | – | – | – |
| CC[C@H](CO)Nc1nc(Nc2ccccn2)c2ncn(C(C)C)c2n1 | 2300 | – | 6200 | 33000 | 1000 | 1800 | – | – | – | – |
| CC[C@@H](CO)Nc1nc(Nc2ccccn2)c2ncn(C(C)C)c2n1 | 4100 | – | 12000 | 21000 | 530 | 1800 | – | – | – | – |
| CC(C)[C@H](CO)Nc1nc(Nc2cncnc2)c2ncn(C(C)C)c2n1 | 38 | – | 1300 | 5000 | 20 | 1800 | – | – | – | – |
| CC[C@H](CO)Nc1nc(Nc2ncccn2)c2ncn(C(C)C)c2n1 | > 10000 | – | > 10000 | > 10000 | > 10000 | 1800 | – | – | – | – |
| CC(C)[C@H](CO)Nc1nc(Nc2ccnnc2)c2ncn(C(C)C)c2n1 | 41 | – | 800 | 6000 | 28 | 1800 | – | – | – | – |
| CC[C@@H](CO)Nc1nc(Nc2cccnc2)c2ncn(C(C)C)c2n1 | 90 | – | 2000 | > 10000 | 14 | 1800 | – | – | – | – |
| CC(C)n1cnc2c(Nc3ccncn3)nc(Cl)nc21 | > 10000 | – | 8000 | > 10000 | 13000 | 1800 | 5 | 5 | > 10000 | – |
| CC(C)[C@H](CO)Nc1nc(Nc2ccncc2)c2ncn(C(C)C)c2n1 | 21 | – | 1800 | 12000 | 20 | 1800 | – | – | – | – |
| CC[C@H](CO)Nc1nc(NCc2ccccc2)c2ncn(C(C)C)c2n1 [SELICICLIB] | – | – | 2300 | – | – | 17400 | – | – | – | – |
| CC[C@@H](CO)Nc1nc(Nc2ncccn2)c2ncn(C(C)C)c2n1 | 11000 | – | > 10000 | > 10000 | 7300 | 1800 | – | – | – | – |
| CC(C)n1cnc2c(Nc3ccnnc3)nc(Cl)nc21 | 3000 | – | 1100 | > 10000 | 1600 | 1800 | – | – | – | – |
| CC(C)[C@@H](CO)Nc1nc(Nc2cccnc2)c2ncn(C(C)C)c2n1 | 300 | – | 2700 | > 10000 | 120 | 1800 | – | – | – | – |

| Compound | IC50 [1] [nM] | IC50 [2] [nM] | IC50 [3] [nM] | IC50 [4] [nM] | IC50 [5] [nM] | IC50 (cells) [nM] | Ratio IC50 (SH-SY5Y [6]) | Ratio IC50 (SH-SY5Y [7]) | IC50 [8] [nM] | inhibition (Sus scrofa) [%] |
| --- | --- | --- | --- | --- | --- | --- | --- | --- | --- | --- |
| CC(C)[C@H](CO)Nc1nc(Nc2ncccn2)c2ncn(C(C)C)c2n1 | > 10000 | – | > 10000 | > 10000 | > 10000 | 1800 | – | – | – | – |
| CC(C)[C@@H](CO)Nc1nc(Nc2cncnc2)c2ncn(C(C)C)c2n1 | 370 | – | 2000 | 16000 | 110 | 1800 | – | – | – | – |
| CC(C)[C@@H](CO)Nc1nc(Nc2ccncc2)c2ncn(C(C)C)c2n1 | 200 | – | 3300 | 7800 | 130 | 1800 | – | – | – | – |
| CC[C@H](CO)Nc1nc(Nc2cncnc2)c2ncn(C(C)C)c2n1 | 42 | – | 600 | > 10000 | 18 | 1800 | – | – | – | – |
| CC(C)[C@@H](CO)Nc1nc(Nc2ccnnc2)c2ncn(C(C)C)c2n1 | 230 | – | 1900 | 4300 | 120 | 1800 | – | – | – | – |
| CC(C)[C@@H](CO)Nc1nc(Nc2ccncn2)c2ncn(C(C)C)c2n1 | 3200 | – | 4900 | 22000 | 790 | 1800 | – | – | – | – |
| CC(C)n1cnc2c(Nc3ccncc3)nc(Cl)nc21 | 7400 | – | 2100 | 18000 | 700 | 1800 | – | – | – | – |
| CC(C)[C@H](CO)Nc1nc(Nc2cccc(Cl)c2)c2ncn(C(C)C)c2n1 | – | – | – | – | – | – | – | – | – | 100 |
| CC[C@@H](CO)Nc1nc(Nc2ccncn2)c2ncn(C(C)C)c2n1 | – | – | 8300 | > 10000 | 2000 | – | – | – | – | – |
| CC[C@@H](CO)Nc1nc(Nc2ccnnc2)c2ncn(C(C)C)c2n1 | 42 | – | 1000 | 7300 | 29 | 1800 | – | – | – | – |
| CC(C)n1cnc2c(Nc3ccccn3)nc(Cl)nc21 | 2100 | – | 3000 | > 10000 | 6200 | 1800 | – | – | – | – |
| CC(C)[C@@H](CO)Nc1nc(Nc2ccccn2)c2ncn(C(C)C)c2n1 | 1900 | – | 11000 | > 10000 | 1200 | 1800 | – | – | – | – |
| CC[C@H](CO)Nc1nc(Nc2ccncc2)c2ncn(C(C)C)c2n1 | 17 | – | 1000 | > 10000 | 38 | 1800 | – | – | – | – |
| CC(C)[C@H](CO)Nc1nc(Nc2ccncn2)c2ncn(C(C)C)c2n1 | 730 | – | 2800 | > 10000 | 330 | 1800 | – | – | – | – |
| CC(C)n1cnc2c(Nc3cncnc3)nc(Nc3cncnc3)nc21 | 360 | – | 220 | > 10000 | 170 | 1800 | – | – | – | – |
| CC(C)[C@H](CO)Nc1nc(Nc2cccnc2)c2ncn(C(C)C)c2n1 | 22 | – | 2200 | 7300 | 18 | 1800 | – | – | – | – |
| CC(C)n1cnc2c(Nc3cccnc3)nc(Cl)nc21 | 1100 | – | 2100 | > 10000 | 680 | 1800 | – | – | – | – |
| CC[C@H](CO)Nc1nc(Nc2ccncn2)c2ncn(C(C)C)c2n1 | – | – | 5800 | > 10000 | 1200 | – | – | – | – | – |
| CC(C)n1cnc2c(Nc3cnccn3)nc(Cl)nc21 | 12000 | – | 7000 | > 10000 | 3100 | 1800 | – | – | – | – |
| CC[C@@H](CO)Nc1nc(Nc2cncnc2)c2ncn(C(C)C)c2n1 | 76 | – | 930 | > 10000 | 23 | 1800 | – | – | – | – |
